Experimental findings from patent publication US20230257351A1, “SUBSTITUTED N-[…] HAVING P2X4 RECEPTOR ANTAGONISTIC ACTIVITY” (Bayer Aktiengesellschaft, priority 2020, published 2023) are described below.

The subject of test [1] is neuropathic mechanical allodynia induced by CCI surgery. The experiment in a line: Chronic Constriction Injury (CCI) Neuropathic Pain Model in Rats with Pain Behavior Read Out. Conditions: rat CCI, von Frey, BID p.o. days 0 through 9. The class given is in vivo, male Sprague-Dawley rats. The procedure: Aim of the study was to test the efficacy of example 68 at ameliorating neuropathic mechanical allodynia. Male Sprague-Dawley rats were subject to chronic constriction injury of the sciatic nerve to induce neuropathic pain. Of those rats, 10 per group were assigned to treatment conditions involving BID drug administration for 10 days and behavioral assessment of mechanical sensitivity for allodynia with von Frey testing (vF). Behavior was assessed pre- and postdosing on Days 0, 2, 5, and 9. Rats were treated with Vehicle or test article BID on days 0 through 9, and rats in the gabapentin treatment group received gabapentin SID on days 0, 2, 5, and 9 in conjunction with behavioral assessment.
As vehicle Solutol/DMSO/WFI (40/10/50) was employed. Application volume for the per oral administration was 10 ml/kg.
Neuropathy was induced in male Sprague-Dawley rats by tying four loose ligatures of chromic gut around the common sciatic nerve in deeply anesthetized rats like described in Bennett, G. J., and Y. K. Xie. “A Peripheral Mononeuropathy in Rat That Produces Disorders of Pain Sensation like Those Seen in Man.” Pain 33 (1988): 87-107.
Mechanical allodynia was measured using 8 Semmes-Weinstein filaments (Stoelting©; Wood Dale, Ill., USA) with varying stiffness (0.4, 0.6, 1.0, 2.0, 4.0, 6.0, 8.0, and 15 g) according to the up-down method1. Animals were placed in individual acrylic chambers on a metal mesh surface and allowed to acclimate to their surroundings for a minimum of 15 minutes before testing. Each filament was presented perpendicular to the plantar surface with sufficient force to cause slight buckling against the paw and held for approximately 6 seconds or until a positive response is noted (paw sharply withdrawn).
Testing was initiated with the 2.0 g filament. In the absence of a paw withdrawal response, the next stronger stimulus was presented. In the event of paw withdrawal, the next weaker stimulus was used. […]
The 50% response threshold is calculated using the formula: […]

Test [2] deals with intraplantar Complete Freund's Adjuvant (CFA)-induced acute inflammatory pain. The experiment in a line: CFA Inflammation Model in Rats with Pain Behaviour Read Out. Conditions: for PWT 2 hour-post drug: mean PWT. Format: in vivo, male Sprague Dawley rats. The procedure: Compound was tested in the model of intraplantar Complete Freund's Adjuvant (CFA)-induced acute (48-hours setting) inflammatory pain in male Sprague Dawley rats. Briefly, 25 μl of CFA at 1 mg/ml was injected into the plantar surface of one hind paw. Mechanical hyperalgesia was measured using the Pressure Application Measurement apparatus (Ugo Basile, Gemonio, Italy). A linearly increasing pressure was applied to an area of approximately 50 mm^2 of the plantar side of the hind paw until a behavioural response (paw withdrawal) was observed or until the pressure reached 1000 grams of force (gf). The pressure at which the behavioural response occurred was recorded as the “Paw Withdrawal Threshold” (PWT). Both CFA-injected and contralateral PWTs were determined for each rat, in each treatment group and at each time point of the studies. The measurements were performed blinded. […] Compound or vehicle (10% DMSO, 40% Solutol, 50% water for injection, vol/vol) were dosed via oral route (p.o.) once daily (QD) or twice daily (BID) during 3 days, starting before CFA injection. Data were expressed as the mean PWT for each treatment group and at each time point. PWT data were analysed by performing a two way ANOVA with repeated measures (time×treatment). Planned comparison of means (each versus vehicle) was performed by using a Dunnett's post hoc test, provided that a main effect was detected. For p values less than 0.05, the results were deemed to be statistically significant.

Test [3] deals with T1, rat P2X4 (Rattus norvegicus, UniProt P51577).
T1 construct: expressed in transfected cells
T1 sequence (P51577 1-388): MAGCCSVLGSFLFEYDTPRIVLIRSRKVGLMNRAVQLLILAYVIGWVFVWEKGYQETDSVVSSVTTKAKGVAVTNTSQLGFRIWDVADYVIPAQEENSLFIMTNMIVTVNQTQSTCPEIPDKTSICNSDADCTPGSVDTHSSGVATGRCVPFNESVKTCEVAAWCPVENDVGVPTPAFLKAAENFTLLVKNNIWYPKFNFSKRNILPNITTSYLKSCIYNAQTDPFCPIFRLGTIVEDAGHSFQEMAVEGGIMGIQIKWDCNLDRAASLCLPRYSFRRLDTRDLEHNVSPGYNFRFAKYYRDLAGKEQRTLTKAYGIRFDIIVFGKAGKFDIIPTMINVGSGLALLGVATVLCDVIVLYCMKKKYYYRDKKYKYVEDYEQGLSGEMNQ
In words: FLIPR Method for Rat P2X4 1321N1 Astrocytoma Cells. Format: cell-based. The settings on record: 1321N1 stably expressing rat P2X4; agonist MgATP 5 μM (EC80). The gist of the method:
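1321N1 cells stably expressing rat P2X4, Fluo8-AM loaded; compounds (25 μM to 1 nM final, ten concentrations) preincubated 30 min at room temperature, then MgATP added at 5 μM (EC80). Calcium fluorescence read on FLIPR before and after agonist; triplicate data normalized to agonist control, four-parameter fit gives IC50.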

Usually IC50 stands for the concentration needed to halve the response being measured. Low values mean higher potency, high ones lower potency.

On to `CC(=O)N(c1ccc(F)c(F)c1)c1cc(NC(=O)Cc2ccc(F)cc2Cl)ccn1` [Example 68, N-{4-[2-(2-chloro-4-fluorophenyl)acetamido]pyridin-2-yl}-N-(3,4-difluorophenyl)acetamide], for which the “mechanical allodynia induced by CCI surgery” value in test [1] is “decreased mechanical allodynia”. The “50% paw withdrawal threshold” value in test [1] (30 and 100 mg/kg (FIG. 1)) is “increased 50% paw withdrawal threshold significantly”. Further, the “PWT 2 hour-post drug” value is 630 gf in test [2] (rat CFA, 10 mg/kg BID p.o. during 3 days); 648 gf in test [2] (rat CFA, 30 mg/kg BID p.o. during 3 days); 759 gf in test [2] (rat CFA, 100 mg/kg BID p.o. during 3 days). Besides, the pain after treatment result in test [2] (rat CFA, 10, 30 and 100 mg/kg doses BID, 2 hours after last administration) is listed as “significantly reduced pain”. For the same molecule, the “development of inflammatory pain after the injection of CFA” value in test [2] (rat, oral administration BID during 3 days) is on record as “prevented the development of inflammatory pain”. The molecule also yielded an IC50 in test [3] of 233 nM. In test [3], the “Rat P2X4 1321N1 Astrocytoma Cells (FLIPR Assay) avg Efficacy” value was found to be 89%.
